Drawing on the NIST ThermoML archive (doi:10.1016/j.jct.2015.11.006), this text covers refractive index for three compounds.

Numbers after ± are expanded uncertainties.

This data set in a line: refractive index (Na D-line) (dimensionless). As to conditions: 298.15 K; 101.33 kPa; Liquid; Standard Abbe refractometry.
As a reminder, the refractive index is a measure of how strongly the sample bends light. Regarding `CCO` [ethanol], the refractive index is listed as 1.3591 ± 0.0005.

In the case of `O` [water], the refractive index is on record as 1.3326 ± 0.0005.

As for `CC(C)O` [propan-2-ol], the refractive index turned out to be 1.3756 ± 0.0005.
